Here are results for 14 compounds from the NIST ThermoML archive (doi:10.1016/j.jct.2011.11.025).

Molecules are shown by their SMILES. ± gives the expanded uncertainty stated by the source.

One may read the mass density as the mass of a sample divided by its volume.

For series [1] the following is noted: 101.33 kPa, Liquid, Vibrating tube method.
Series [2] can be described thus: activity coefficient (dimensionless); of the first substance listed, at infinite dilution; xn = mol fraction of the nth substance listed. The note with it: Liquid, Chromatography, x1 = 0.

As to `CCCCCCn1cc[n+](C)c1.N#C[B-](C#N)(C#N)C#N` [1-hexyl-3-methylimidazolium tetracyanoborate], the mass density in series [1] (318.15 K) came out at 976.11 ± 0.23 kg/m3; in series [1] (328.15 K), 969.06 ± 0.23 kg/m3; in series [1] (338.15 K), 962.08 ± 0.23 kg/m3; in series [1] (348.15 K), 955.16 ± 0.23 kg/m3; in series [1] (358.15 K) it was 948.32 ± 0.23 kg/m3; in series [1] (368.15 K), 941.2 ± 0.23 kg/m3.
As to `C=CCCCCCC` [oct-1-ene] + CCCCCCn1cc[n+](C)c1.N#C[B-](C#N)(C#N)C#N, the activity coefficient amounted to 11.7 ± 0.5 in series [2] (318.15 K); 11.1 ± 0.5 in series [2] (328.15 K); 10.7 ± 0.5 in series [2] (338.15 K); 10.3 ± 0.5 in series [2] (348.15 K); 9.91 ± 0.46 in series [2] (358.15 K); 9.64 ± 0.44 in series [2] (368.15 K).
Take `CCCCCCCC` [octane] + CCCCCCn1cc[n+](C)c1.N#C[B-](C#N)(C#N)C#N: the activity coefficient stood at 22.8 ± 1.1 in series [2] (318.15 K); 21.1 ± 1 in series [2] (328.15 K); 19.7 ± 0.9 in series [2] (338.15 K); 18.6 ± 0.9 in series [2] (348.15 K); 17.4 ± 0.8 in series [2] (358.15 K); 16.6 ± 0.8 in series [2] (368.15 K).
`CCCC(C)=O` [pentan-2-one] + CCCCCCn1cc[n+](C)c1.N#C[B-](C#N)(C#N)C#N: the activity coefficient in series [2] (318.15 K) is 0.497 ± 0.033; in series [2] (328.15 K) it was 0.513 ± 0.032; in series [2] (338.15 K) it was 0.529 ± 0.032; in series [2] (348.15 K), 0.544 ± 0.032; in series [2] (358.15 K), 0.556 ± 0.032; in series [2] (368.15 K) it was 0.572 ± 0.031.
Regarding `CCC(=O)CC` [pentan-3-one] + CCCCCCn1cc[n+](C)c1.N#C[B-](C#N)(C#N)C#N, the activity coefficient in series [2] (318.15 K) was 0.478 ± 0.033; in series [2] (328.15 K), 0.498 ± 0.033; in series [2] (338.15 K) it was 0.518 ± 0.032; in series [2] (348.15 K) it was 0.536 ± 0.032; in series [2] (358.15 K), 0.551 ± 0.032; in series [2] (368.15 K), 0.569 ± 0.031.
For `CCCCC` [pentane] + CCCCCCn1cc[n+](C)c1.N#C[B-](C#N)(C#N)C#N, the activity coefficient is 8.63 ± 0.4 in series [2] (318.15 K); 8.22 ± 0.38 in series [2] (328.15 K); 7.85 ± 0.36 in series [2] (338.15 K); 7.61 ± 0.35 in series [2] (348.15 K); 7.33 ± 0.34 in series [2] (358.15 K); 7.13 ± 0.33 in series [2] (368.15 K).
For `CCCO` [propan-1-ol] + CCCCCCn1cc[n+](C)c1.N#C[B-](C#N)(C#N)C#N, the activity coefficient in series [2] (318.15 K) came out at 1.19 ± 0.04; in series [2] (328.15 K) it was 1.1 ± 0.03; in series [2] (338.15 K), 1.02 ± 0.03; in series [2] (348.15 K), 0.965 ± 0.026; in series [2] (358.15 K), 0.913 ± 0.026; in series [2] (368.15 K), 0.864 ± 0.027.
`CC(C)O` [propan-2-ol] + CCCCCCn1cc[n+](C)c1.N#C[B-](C#N)(C#N)C#N: the activity coefficient in series [2] (318.15 K) was 1.2 ± 0.04; in series [2] (328.15 K) it was 1.11 ± 0.03; in series [2] (338.15 K) it was 1.03 ± 0.03; in series [2] (348.15 K), 0.961 ± 0.026; in series [2] (358.15 K) it was 0.902 ± 0.026; in series [2] (368.15 K) it was 0.852 ± 0.027.
As to `c1ccncc1` [pyridine] + CCCCCCn1cc[n+](C)c1.N#C[B-](C#N)(C#N)C#N, the activity coefficient in series [2] (318.15 K) is 0.38 ± 0.034; in series [2] (328.15 K), 0.389 ± 0.034; in series [2] (338.15 K), 0.4 ± 0.034; in series [2] (348.15 K) it was 0.408 ± 0.034; in series [2] (358.15 K) it was 0.418 ± 0.034; in series [2] (368.15 K), 0.429 ± 0.034.
For the compound `C=Cc1ccccc1` [styrene] + CCCCCCn1cc[n+](C)c1.N#C[B-](C#N)(C#N)C#N, the activity coefficient turned out to be 0.83 ± 0.03 in series [2] (328.15 K); 0.856 ± 0.027 in series [2] (338.15 K); 0.878 ± 0.027 in series [2] (348.15 K); 0.902 ± 0.026 in series [2] (358.15 K); 0.926 ± 0.026 in series [2] (368.15 K).
Consider `C1CCOC1` [tetrahydrofuran] + CCCCCCn1cc[n+](C)c1.N#C[B-](C#N)(C#N)C#N, for which the activity coefficient was determined as 0.453 ± 0.033 in series [2] (318.15 K); 0.47 ± 0.033 in series [2] (328.15 K); 0.485 ± 0.033 in series [2] (338.15 K); 0.501 ± 0.032 in series [2] (348.15 K); 0.513 ± 0.032 in series [2] (358.15 K); 0.527 ± 0.032 in series [2] (368.15 K).
`c1ccsc1` [thiophene] + CCCCCCn1cc[n+](C)c1.N#C[B-](C#N)(C#N)C#N: the activity coefficient was determined as 0.636 ± 0.03 in series [2] (318.15 K); 0.647 ± 0.03 in series [2] (328.15 K); 0.657 ± 0.03 in series [2] (338.15 K); 0.666 ± 0.03 in series [2] (348.15 K); 0.678 ± 0.03 in series [2] (358.15 K); 0.689 ± 0.03 in series [2] (368.15 K).
In the case of `Cc1ccccc1` [toluene] + CCCCCCn1cc[n+](C)c1.N#C[B-](C#N)(C#N)C#N, the activity coefficient in series [2] (318.15 K) worked out at 0.975 ± 0.025; in series [2] (328.15 K), 0.993 ± 0.025; in series [2] (338.15 K) it was 1.02 ± 0.03; in series [2] (348.15 K) it was 1.04 ± 0.03; in series [2] (358.15 K), 1.06 ± 0.03; in series [2] (368.15 K), 1.08 ± 0.03.
As for `O` [water] + CCCCCCn1cc[n+](C)c1.N#C[B-](C#N)(C#N)C#N, the activity coefficient in series [2] (318.15 K) amounted to 2.05 ± 0.09; in series [2] (328.15 K), 1.87 ± 0.08; in series [2] (338.15 K), 1.7 ± 0.07; in series [2] (348.15 K) it was 1.55 ± 0.06; in series [2] (358.15 K) it was 1.42 ± 0.05; in series [2] (368.15 K), 1.33 ± 0.05.
